This note sets out measurements from patent US6632797B2, “Method of treating angiogenesis” (priority 1996, dated 2003).

In test [1] the test system is carrageenan-induced inflammation. Nature of the test: Carrageenan-induced paw inflammation in mice (plethysmometer). It is filed as in vivo. The note with it: intravenous injection before carrageenan (64 mg/kg stated for PP35-405); after 3.5 hrs. The protocol:
Growth factors are implicated to participate in inflammatory conditions. Carrageenan (0.1 ml, 1%) was injected intraplantarly in one hind paw of two groups of mice, five animals in each group.
An intravenous injection of 64 mg/kg of 1,2-O-ethylene-β-D-fructopyranoside-2,3,4-trisphosphate (PP35-405) was administered immediately before the injection of carrageenan.
Injection of carrageenan induces inflammation which is measured by comparing the increase in paw volume using a plethysmometer.
In a procedure similar to the one described in Example 8, an intravenous injection of 1,5-dideoxy-1,5-imino-N-(2-phenylethyl)arabinitol-2,3,4-trisphosphate (PP35-508) was administered.
In a procedure similar to the one described in Example 8, an intravenous injection of myo-inositol-1,2,6-tris(carboxymethyl phosphonate) (PP40-402) was administered. 3.5 hrs after the injection of carrageenan the inflammation was retarded with 32% in the group recieving PP40-402. Thus the administration of PP40-402 markedly reduces the inflammatory condition.
(In general: In the carrageenan paw model, swelling and tenderness develop within hours.)

The nature of test [2]: Binding constants to the polyamine spermine. The note with it: 1:1:5 complex; 0.1 M N-tetramethylbromide at 25° C. It is filed as physicochemical. The protocol:
The interaction between a polyamine, spermine and different triphosphorylated compounds were investigated in order to determin the binding constants. Spermine is a basic polyamine comprising domains of similar basicity to basic domains in growth factors. Spermine and the different phosphorylated compounds forms different complexes and the 1:1:5 complex was used as the complex for determination of binding constants.
The following binding constants, log Ks was determined in 0.1 M N-tetramethylbromide at 25° C.: […]

The subject of test [3] is HIV (viral isolates from HIV-infected patients) in peripheral blood mononuclear cells (PBMC). The experiment in a line: HIV infection of PBMC, HIV-antigen production by ELISA. It is filed as cell-based. The note with it: normalized HIV-antigen production at day 7, control 100. The protocol: Growth factor activity is considered to be involved in the process of viral infections. Viral isolates from HIV-infected patients were used in order to induce an infection by adding peripheral blood mononuclear cells (PBMC) to a medium containing different concentrations of the sodium salt of D-3,4,5-tri-O-hexanoyl-myo-inositol-1,2,6-trisphosphate (PP10-202). 25 CCID50 (50% cell culture infections dose) of PBMC from HIV-infected patients were incubated with four different concentrations of PP10-202; 0.0625 mg/ml, 0.125 mg/ml, 0.250 mg/ml and 0.500 mg/ml. Another preparation, without any PP10-202 served as a control. The growth medium consisted of 10% fetal calf serum, […] glutamine, 100 IU/ml penicillin, 100 IU/ml streptomycin and 20 μg/ml gentamicin. The concentration of cells were 2×10^5 per ml. All preparations were incubated for 1 hour at 37° C.
PBMCs from healthy donors were then added to the preparation. Before addition, these cells were stimulated for three days with phytohemagglutinin (PHA). 0.5×10^6 PHA-stimulated PBMCs were added to each preparation, followed by incubation for 3 hours at 37° C. After extensive washing the cells were resuspended in growth medium supplemented with 10 IU/ml of interleukin-2 and seeded in quadruplicates of 100.000 cells in a 96-well microtite plate before further cultivation for 7 days. The HIV-antigen production was assayed at the seventh day using an ELISA-technique.
(In general: An ELISA detects its analyte on a solid surface through an enzyme-linked reagent.)

Test [4] concerns acetic acid-induced writhes. The experiment in a line: Acetic acid writhing test (analgetic effect). It is filed as in vivo, mice. The note with it: 64 mg/kg intravenous, sodium salt; 10-minute observation. The protocol:
Two groups of mice, 10 animals per group, were used in order to investigate the analgetic effect of methyl α-D-rhamnopyranoside-2,3,4-trisphosphate (PP 35-406). The control group was given an intravenous dose of saline while the other group was given a dose of 64 mg/kg of the sodium salt of PP 35-406. Three minutes after intravenous dosing, each […] received an intraperitoneal injection of 1 ml of a 1% (w/w) solution of acetic acid. Directly after that procedure each animal was placed into individual observation chambers and the numbers of writhes elicited during the subsequent 10-minute period were recorded. After the observation period the animals were killed by cervical dislocation. The number of writhes during the observation period is an expression of the pain experienced by the animal. Percent protection was calculated as follows: […]((number of writhes in control group—number of writhes in treated animals)/(number of writhes in control group).
In general terms: An intraperitoneal irritant provokes the stretching counted in writhing tests.

Test [5] concerns phosphatidyl inositol 3′ kinase (PI 3′-kinase). The experiment in a line: Interstitial fluid pressure (PIF) in rat hind paw, wortmannin-induced decrease. The note with it: wortmannin in DMSO/saline, 5 μl subdermally; after 30 minutes; vehicle ca −0.7 mm Hg. On the set-up: PIF (interstitial fluid pressure): dose or concentration left out as unconfirmed. It is filed as in vivo, Wistar Möller rats. The source says:
The enzyme phosphatidyl inositol 3′ kinase (PI 3′-kinase) is implicated in a number of growth factor induced responses such as mitogenesis, chemotaxis, membrane ruffling and the balance between osteoclasts and osteoblasts. Furthermore it is known that inactivation of PI 3′ kinase leads to increased oedema formation expressed as a decrease of interstitial fluid pressure (PIF) in animal models.
An inhibitor of PI 3′ kinase such as wortmannin renders a decrease of PIF as a consequence of inactivation of PI 3′ kinase.
The measurements were performed on female Wistar Möller rats (200-250 g), anesthetized with pentobarbital (50 mg/kg i.p.).
PIF was measured on the dorsal side of the hind paw with sharpened glass capillarier (tip diameter 2-7 μm) filled with 0.5 M NaCl coloured with Evans Blue and connected to a serve-controlled counter pressure system. The punctures were performed through intact skin using a stereomicroscope. The pipette-tip was located 0.3-0.5 mm below the skin. Pressure measurements were made 2.5-3.0 mm from the center of injection. The normal transcapillary pressure gradient is about 0.5 mm Hg.
Three sets of experiments were performed with six animals in each set.
In the first set of experiment the vehicle for wortmannin, DMSO diluted in saline, 5 μl, was injected subdermally using a chromatography syringe. […]

For the molecule “1,2-O-ethylene-β-D-fructopyranoside-2,3,4-trisphosphate [PP35-405]”, the “inflammation retarded (increase in paw volume)” value in test [1] amounted to 51%. In the case of `CCCCCC(=O)O[C@@H]1[C@@H](OC(=O)CCCCC)[C@@H](OP(=O)(O)O)[C@@H](OP(=O)(O)O)[C@H](OP(=O)(O)O)[C@H]1OC(=O)CCCCC` [PP10-202, D-3,4,5-tri-O-hexanoyl-myo-inositol-1,2,6-trisphosphate], the “log Ks” value in test [2] is given as 4.20. The HIV-infection in test [3] (0.0625 mg/ml) is recorded as 75%; in test [3] (0.125 mg/ml), 41%; in test [3] (0.250 mg/ml), 33%; in test [3] (0.500 mg/ml), 20%. As to `O=C(Nc1ccccc1)O[C@@H]1[C@@H](OC(=O)Nc2ccccc2)[C@@H](OP(=O)(O)O)[C@@H](OP(=O)(O)O)[C@H](OP(=O)(O)O)[C@H]1OC(=O)Nc1ccccc1` [PP11-201, D-3,4,5-tri-O-phenylcarbamoyl-myo-inositol-1,2,6-trisphosphate], the “log Ks” value in test [2] came out at 4.71. For `O=P(O)(O)OC1CN(CCc2ccccc2)CC(OP(=O)(O)O)C1OP(=O)(O)O` (stereo not drawn) [PP35-508, 1,5-dideoxy-1,5-imino-N-(2-phenylethyl)arabinitol-2,3,4-trisphosphate], the “inflammation retarded (increase in paw volume)” value in test [1] stood at 27%. Same read-out and setting: as for `O=C(O)CP(=O)(O)OC1C(O)C(O)C(O)C(OP(=O)(O)CC(=O)O)C1OP(=O)(O)CC(=O)O` (stereo not drawn) [PP40-402, myo-inositol-1,2,6-tris(carboxymethyl phosphonate)], the figure is 32%. With `CO[C@H]1O[C@H](C)[C@@H](OP(=O)(O)O)[C@H](OP(=O)(O)O)[C@@H]1OP(=O)(O)O` [PP 35-406, methyl α-D-rhamnopyranoside-2,3,4-trisphosphate], the “Percent protection (number of writhes)” value in test [4] worked out at 19%. As for `COC[C@H]1OC(=O)c2coc3c2[C@@]1(C)C1=C(C3=O)[C@@H]2CCC(=O)[C@@]2(C)C[C@H]1OC(C)=O` [wortmannin, reference compound], the “PIF (interstitial fluid pressure)” value in test [5] is −2.5 mm Hg.

As to “Methyl-6-O-butyl-α-D-mannopyranoside 2,3,4-trisphosphate [PP35-402]”, in test [2], the “log Ks” value came to 5.36.
